In ChEMBL document CHEMBL1151140, “Enantiomeric Relationships and Anthelmintic Activity of Dysinin Derivatives from Dysidea Marine Sponges” (J Nat Prod, 1990):
Calls of active or inactive are those of the source. No cut-off for these calls is given here.

Key:
Nippostrongylus = experiment: Anthelmintic activity against Nippostrongylus dubias at 1000 ppm; assay type: functional, organism-based
[1] = tested on: Nippostrongylus brasiliensis; experiment: Anthelmintic activity against Nippostrongylus brasiliensis at 50 ug/ml; assay type: functional, organism-based
[2] = Anthelmintic activity against Hypselodoris nana at 1000 ppm; assay type: functional

SMILES	Activity (Nippostrongylus)	Activity [1]	Activity [2]
CC1=C[C@H]2Cc3occc3C(C)(C)[C@@H]2CC1	inactive	Active	inactive
CC(=O)SCC1=C[C@H]2Cc3occc3C(C)(C)[C@@H]2CC1		Active	
CC1(C)c2ccoc2C[C@@H]2C=C(CSSCC3=C[C@H]4Cc5occc5C(C)(C)[C@@H]4CC3)CC[C@H]21		Active	
CO[C@]12C[C@@H]3C=C(CSC(C)=O)CC[C@H]3C(C)(C)C1=CC(=O)O2		inactive	
